Earlier results on one compound are cited in patent US11737994B2, “Topical compositions for pain relief, manufacture and use” (priority 2014, dated 2023).

For the data set the following is noted: in words.

Turning to `CCCCCCCCC(=O)NCc1ccc(O)c(OC)c1` [Nonivamide, vanillylamide of n-nonanoic acid], the Heat stability result was “more heat-stable than capsaicin”.
